Measured values taken from US7892218B2, “pH reducing formulation” (Rostam Ltd., priority 2004, dated 2011).

Experiments:
[1] = Protocol: The same experiment was repeated by comparing the pH lowering kinetics of the same compounds, deposited onto a polymeric support in the form of weighed (240 mg), rectangular shaped pieces of non-woven (NW) tampon cloth (hereinafter referred to as “strips”) by evaporation from an acetone solution, substantially as described in WO 02/17981 and U.S. 2002/0045873 whose contents are hereby incorporated by reference in their entireties. The strips may be incorporated in a tampon. The strips were dipped in plasma at 37° C.
[2] = remark: listed apart in the source
Protocol: The pH lowering ability of glycolide in its crystalline form, obtained from Purac Ltd., Holland, was tested in plasma at 37° C. as a function of time, compared to that of lactide and citric acid (also in crystalline form). All three materials were taken such as to eventually yield equal molar amounts of carboxylic acid groups.

SMILES	release behaviour on strips (in words) ([1]; non-woven strips, plasma, 37° C. (FIG. 2))	degradation / acid release kinetics (in words) [2]	change in degradation rate when deposited on strips [1]	time in which degradation was completed [2]
O=C(O)CC(O)(CC(=O)O)C(=O)O [citric acid]	behaved as previously described	burst-like immediate release	–	–
O=C1COC(=O)CO1 [glycolide]	–	significantly faster than that of lactide	two-fold increase	approximately 40 minutes
CC1OC(=O)C(C)OC1=O (stereo not shown) [lactide]	–	–	two-fold increase	approximately 120 minutes
